Where a name gives a salt, the structure may show the parent alone.
What was measured:
[1] = biological target: pseudo-kinase domain (JH2, amino-acids 536-812) of human V617F mutant JAK2 (Homo sapiens (Human), UniProt O60674, F794H/V617F/W659A/W777A); test: JAK2 LanthaScreen JH2-V617F Binding Assay; settings: JAK2 JH2-V617F 0.26 nM, 50 nM fluorescent tracer, 1 hour at 25° C.; read-out: JH2 BIND V617F IC50
Method: The assay was conducted in black 384-well polystyrene plates in a final reaction volume of 20 μL. […] Non-specific binding was accessed in the presence of 2 mM ATP. After incubation for 1 hour at 25° C., LanthaScreen signals were read on a PHERAstar FS plate reader (BMG LABTECH). Data was analyzed with IDBS XLfit and GraphPad Prism 5.0 software using a four parameter dose response curve to determine IC50 for each compound.

[2] = biological target: catalytic domain (JH1, amino acids 826-1132) of human JAK2 (Homo sapiens (Human), UniProt O60674); test: JAK2 LanthaScreen JH1 Binding Assay; settings: JAK2 JH1 1.5 nM, 50 nM fluorescent tracer, 2 hours at 25° C.; read-out: JH1 BIND IC50
catalytic domain (JH1, amino acids 826-1132) of human JAK2, sequence (O60674 826-1132): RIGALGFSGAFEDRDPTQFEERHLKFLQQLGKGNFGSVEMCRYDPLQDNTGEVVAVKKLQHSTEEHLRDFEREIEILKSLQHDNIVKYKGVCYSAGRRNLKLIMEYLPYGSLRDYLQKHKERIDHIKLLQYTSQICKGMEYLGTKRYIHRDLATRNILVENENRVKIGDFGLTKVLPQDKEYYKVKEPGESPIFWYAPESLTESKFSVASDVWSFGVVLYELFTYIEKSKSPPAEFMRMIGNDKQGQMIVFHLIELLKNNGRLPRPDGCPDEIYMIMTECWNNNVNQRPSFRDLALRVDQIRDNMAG
Method: Example A. JAK2 LanthaScreen JH1 Binding Assay
(§1) JAK2 JH1 binding assay utilizes catalytic domain (JH1, amino acids 826-1132) of human JAK2 expressed as N-terminal FLAG-tagged, biotinylated protein in a baculovirus expression system (Carna Biosciences, Product #08-445-20N). The assay was conducted in black 384-well polystyrene plates in a final reaction volume of 20 μL. JAK2 JH1 (1.5 nM) was incubated with compounds (100 nL serially diluted in DMSO) in the presence of 50 nM Fluorescent JAK2-JH1 Tracer and 0.5 nM Streptavidin-Tb cryptate (Cisbio Part #610SATLB) in assay buffer (50 mM Tris, pH=7.5, 10 mM MgCl2, 0.01% Brij-35, 0.1% BSA, 1 mM EGTA, 5% Glycerol and 5 mM DTT). Non-specific binding was accessed in the presence of 2 mM ATP. After incubation for 2 hours at 25° C., LanthaScreen signals were read on a PHERAstar FS plate reader (BMG LABTECH). Data was analyzed with IDBS XLfit and GraphPad Prism 5.0 software using a four parameter dose response curve to determine IC50 for each compound.

[3] = biological target: pseudo-kinase domain (JH2, amino-acids 536-812) of human Wild Type JAK2 (Homo sapiens (Human), UniProt O60674, F794H/W659A/W777A); test: JAK2 LanthaScreen JH2-WT Binding Assay; settings: JAK2 JH2-WT 0.145 nM, 50 nM fluorescent tracer, 1 hour at 25° C.; read-out: JH2 BIND WT IC50
pseudo-kinase domain (JH2, amino-acids 536-812) of human Wild Type JAK2, sequence (O60674 536-812 W659A/W777A/F794H): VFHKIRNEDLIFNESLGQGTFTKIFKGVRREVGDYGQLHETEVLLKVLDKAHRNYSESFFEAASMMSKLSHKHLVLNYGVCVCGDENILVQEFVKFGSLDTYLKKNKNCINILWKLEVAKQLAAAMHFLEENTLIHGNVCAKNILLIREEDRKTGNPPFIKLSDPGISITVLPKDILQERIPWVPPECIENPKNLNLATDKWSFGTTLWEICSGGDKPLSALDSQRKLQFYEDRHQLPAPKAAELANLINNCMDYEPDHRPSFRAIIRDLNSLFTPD
Method: Example B. JAK2 LanthaScreen JH2-WT Binding Assay
as §1, with “The” for “JAK2 JH1 binding assay utilizes catalytic domain (JH1, amino acids 826-1132) of human JAK2 expressed as N-terminal FLAG-tagged, biotinylated protein in a baculovirus expression system (Carna Biosciences, Product #08-445-20N). The”, “JH2-WT (0.145” for “JH1 (1.5”, “JAK2-JH2” for “JAK2-JH1”, “Tracer (MedChem Express Catalog #HY-102055)” for “Tracer”, “0.25” for “0.5”, “1 hour” for “2 hours”

[4] = biological target: catalytic domain (JH1, amino acids 808-1132) of human JAK2 (Homo sapiens (Human), UniProt O60674); test: JAK2 HTRF Enzyme Activity Assay; format: biochemical; settings: JAK2 0.015 nM, ATP (30 μM or 1 mM), 60 minutes at 25° C.
catalytic domain (JH1, amino acids 808-1132) of human JAK2, sequence (O60674 808-1132): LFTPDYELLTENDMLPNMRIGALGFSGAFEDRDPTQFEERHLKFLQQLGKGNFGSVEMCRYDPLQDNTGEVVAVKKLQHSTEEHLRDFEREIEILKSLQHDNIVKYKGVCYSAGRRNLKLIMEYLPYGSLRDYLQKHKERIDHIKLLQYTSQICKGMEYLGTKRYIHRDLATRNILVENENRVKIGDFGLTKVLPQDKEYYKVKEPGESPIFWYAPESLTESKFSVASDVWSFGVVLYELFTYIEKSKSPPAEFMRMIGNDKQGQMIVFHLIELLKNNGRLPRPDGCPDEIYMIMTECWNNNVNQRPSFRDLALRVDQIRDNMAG
Method: Example D. JAK2 HTRF Enzyme Activity Assay
JAK2 enzyme activity assays utilize catalytic domain (JH1, amino acids 808-1132) of human JAK2 expressed as N-terminal His-tagged protein in a baculovirus expression system (BPS Bioscience, Catalog #40450). The assays was conducted in black 384-well polystyrene plates in a final reaction volume of 20 μL. JAK2 (0.015 nM) was incubated with compounds (100 nL serially diluted in DMSO) in the presence of ATP (30 μM or 1 mM) and 500 nM Biotin-labeled […] (SEQ ID NO.: 1) peptide (BioSource International, custom synthesis) in assay buffer (50 mM Tris, pH=7.5, 10 mM MgCl2, 0.01% Brij-35, 0.1% BSA, 1 mM EGTA, 5% Glycerol and 5 mM DTT) for 60 minutes at 25° C. The reactions were stopped by the addition of 10 μL of detection buffer (50 mM Tris, pH 7.8, 0.5 mg/mL BSA, 150 mM NaCl), supplemented with EDTA, LANCE Eu-W1024 anti-phosphotyrosine (PY20), (PerkinElmer, Catalog #AD0067) and Streptavidin SureLight APC (PerkinElmer Catalog #CR130-100), for a final concentration of 15 mM, 1.5 nM and 75 nM, respectively. HTRF signals were read after 30 minutes incubation at room temperature on a PHERAstar FS plate reader (BMG LABTECH). Data was analyzed with IDBS XLfit and GraphPad Prism 5.0 software using a four parameter dose response curve to determine IC50 for each compound.

pseudo-kinase domain (JH2, amino-acids 536-812) of human V617F mutant JAK2, sequence (O60674 536-812 V617F/W659A/W777A/F794H): as the sequence (O60674 536-812 W659A/W777A/F794H) above, with V82F counted along it

CN1C(=O)N(c2ccc(C(=O)O)cc2)Cc2c1cnc1[nH]c(-c3ccc(CN4CCC(S(C)(=O)=O)CC4)cc3)c(C#N)c21 [Example 24, 4-(9-Cyano-4-methyl-8-(4-((4-(methylsulfonyl)piperidin-1-yl)methyl)phenyl)-3-oxo-1,3,4,7-tetrahydro-2H-pyrrolo[3′,2′:5,6]pyrido[3,4-d]pyrimidin-2-yl)benzoic acid Trifluoroacetic Acid Salt]
IC50 [1]: 0.1 to 0.5 µM | IC50 [2]: > 2.5 µM | IC50 [3]: 0.1 to 0.5 µM | IC50 [4]: > 2.5 µM

From patent publication US11661422B2, “Tricyclic urea compounds as JAK2 V617F inhibitors” (Incyte Corporation, priority 2020, dated 2023)
